Results: PubChem BioAssay AID449753 (NMMLSC, 2010)
Activity calls are given as the source filed them.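 The calls were made as follows: active = EC50 under 30000 nM from a falling dose curve whose fit quality and slope passed set checks; inactive = the rest.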

Tested on: not listed separately
Experiment: age-related ROS inhibitors in S. cerevisiae – DHE fluorescence, primary hits, dose response (AID 449753)
Conditions: S. cerevisiae aged culture, superoxide DHE fluorescence, 7 d; at 30 µM (top of the series)
With `CC(=O)[C@@]1(O)CCC2C3CC[C@H]4C[C@@H](O)CC[C@]4(C)C3CC[C@@]21C` (stereo partly specified) the percent response (superoxide), lower = inhibition was 129 (inactive). For `N#CC(c1nc2ccccc2nc1N1CCCC1)S(=O)(=O)c1ccccc1` (stereo unspecified), the percent response (superoxide), lower = inhibition was 98.7 (inactive). For `C[C@]12CCC3C(CC[C@H]4C[C@@H](O)CC[C@]34C)[C@H]1CC[C@H]2O` (stereo partly specified), the percent response (superoxide), lower = inhibition was 64.7 (inactive). In the case of `CC(C)OC(=O)CSc1nnc(-c2ccc(Cl)cc2Cl)o1`, the percent response (superoxide), lower = inhibition is reported as 112 (inactive). In the case of `C#C[C@]1(O)[C@H](O)CC2C3CC[C@H]4C[C@@H](O)CC[C@]4(C)C3CC[C@@]21C` (stereo partly specified), the percent response (superoxide), lower = inhibition is reported as 87.4 (inactive). For `CCc1nc(NC(C)(C)C)c2cnn(-c3ccccc3)c2n1`, the percent response (superoxide), lower = inhibition was 88 (inactive). With `N#CCc1nn(-c2ccccc2)c2ncnc(N)c12` the percent response (superoxide), lower = inhibition was 96.7 (inactive). For `CCN(CC)C(=O)CSc1nnc(-c2cccc(OC)c2)o1`, the percent response (superoxide), lower = inhibition was 92.6 (inactive). With `COc1ccc2nc3ccccc3nc2c1NC(=O)c1ccccc1Cl` the percent response (superoxide), lower = inhibition was 56.6 (inactive). With `O=C(O)c1cnc2ccccc2n1` the percent response (superoxide), lower = inhibition was 114 (inactive). For `C[C@]12CCC3C(CC[C@H]4C[C@@H](O)CC[C@]34C)C1CC[C@@H]2OC(=O)[C@H](N)CCCCN` (stereo partly specified), the percent response (superoxide), lower = inhibition was 71.9 (inactive). For `O=c1[nH]c(O)c(C=Nc2ccc(F)c(Cl)c2)c(=O)[nH]1`, the percent response (superoxide), lower = inhibition was 107 (inactive). In the case of `O=C(/C=C/c1cccs1)NC(=S)NNC(=O)Cc1cccs1`, the percent response (superoxide), lower = inhibition is reported as 121 (inactive). In the case of `O=C(OCc1c(F)cccc1Cl)c1cnc2ccccc2n1`, the percent response (superoxide), lower = inhibition is reported as 117 (inactive). For `O=C(Nc1ccc2nc3ccccc3nc2c1)c1ccccc1`, the percent response (superoxide), lower = inhibition was 57.7 (inactive). For `CN(C)CCNc1ncnc2c1cnn2-c1ccc(Cl)cc1`, the percent response (superoxide), lower = inhibition was 99.2 (inactive). For `CC(=O)O[C@H]1CCC2C3CC[C@H]4[C@@H](O)[C@H](O)CC[C@]4(C)C3CC[C@@]21C` (stereo partly specified), the percent response (superoxide), lower = inhibition was 90.2 (inactive). For `O=C(/C=C/c1ccccc1)NC(=S)NNC(=O)Cc1cccs1`, the percent response (superoxide), lower = inhibition was 83 (inactive). For `C=CCOn1c(=O)c(-c2cccs2)[n+]([O-])c2ccccc21`, the percent response (superoxide), lower = inhibition was 104 (inactive). For `O=C(Nc1cccc(Cl)c1)Nc1ccc2nccnc2c1`, the percent response (superoxide), lower = inhibition was 87.1 (inactive). For `O=C(Nc1ccc2nc3ccccc3nc2c1)c1ccc(Br)cc1`, the percent response (superoxide), lower = inhibition was 105 (inactive).

Tested on: S. cerevisiae aged culture, superoxide DHE fluorescence, 7 d
Experiment: as above
Conditions: not given
Compound `CC(C)(C)n1nc(-c2ccc(Cl)cc2)c2c(N)ncnc21` has an EC50 of 4790 nM. `[O-][n+]1c2ccccc2[n+]([O-])c2cc(O)ccc21` gave an EC50 of 940 nM. In the case of `c1ccc2[nH]c3cc4ncnc4cc3nc2c1`, the EC50 is reported as 40 nM. Compound `CC(C)(C)Nc1ncnc2c1cnn2-c1ccccc1` has an EC50 of 470 nM. Work on `c1ccc2nc3ccccc3nc2c1` yielded an EC50 of 440 nM. Work on `C[C@]12CCC3C(CC[C@H]4C[C@H](O)CC[C@]34C)C1C[C@@H](CCCCl)[C@@H]2O` (stereo partly specified) yielded an EC50 of 500 nM. With `O=C1c2c(O)ccc(O)c2C(=O)c2c(NCCNCCO)ccc(NCCNCCO)c21` the EC50 was 5250 nM. In the case of `COc1ccc2c3c(cccc13)N(C)N=C2C`, the EC50 is reported as 7910 nM. Compound `COc1ccc2nc3ccccc3nc2c1N` has an EC50 of 660 nM. `Nc1cc2nc3ccccc3nc2cc1N` showed an EC50 of 1850 nM. In the case of `FC(F)(F)c1nc2cc3nc4ccccc4[nH]c3cc2n1`, the EC50 is reported as 210 nM. In the case of `CC(C)OC(=O)c1ccc2nc3ccccc3nc2c1`, the EC50 is reported as 16700 nM. `Cc1ccc(-c2nn(C(C)(C)C)c3ncnc(N)c23)cc1` showed an EC50 of 3030 nM. `CC(C)(C)n1nc(-c2ccc(F)cc2)c2c(N)ncnc21` showed an EC50 of 5170 nM. `COC(=O)c1cccc2nc3c(C(C)O)cccc3nc12` (stereo unspecified) gave an EC50 of 1290 nM. `CNC(=O)c1cccc2nc3ccccc3nc12` showed an EC50 of 14500 nM. In the case of `C#CCSc1nnc(-c2ccc([N+](=O)[O-])cc2)o1`, the EC50 is reported as 4720 nM. `OCC[n+]1c2ccccc2nc2ccc(N3CCOCC3)cc21` showed an EC50 of 3810 nM. For `CNc1ccc2nc3ccccc3[n+](C)c2c1`, the EC50 was 10100 nM. In the case of `Cn1c(O)c(C(=Nc2ccc(F)cc2)c2ccccc2Cl)c(=O)n(C)c1=O`, the EC50 is reported as 3140 nM (inactive). `C[C@]12CCC3C(CC[C@H]4C[C@H](O)CC[C@]34C)C1CCC2=O` (stereo partly specified) showed an EC50 of 630 nM. In the case of `C=CCSc1nnc(-c2ccc([N+](=O)[O-])cc2)o1`, the EC50 is reported as 2900 nM. For `C=C1C(O)[C@@H]2O[C@]3(CC[C@H](/C=C/C(C)[C@@H]4CC(C)=CC5(O[C@H](C[C@@](C)(O)C(=O)O)CCC5O)O4)O3)CC[C@H]2O[C@@H]1C(O)CC(C)[C@H]1OC2(CCCCO2)CCC1C` (stereo partly specified), the EC50 was 100 nM. Work on `COc1ccc2c(c1)c1nnc(SC)nc1n2C` yielded an EC50 of 3230 nM. In the case of `CCC(=Nc1ccccc1O)C1=C(O)CC(c2ccccc2)CC1=O` (stereo unspecified), the EC50 is reported as 1630 nM.
